Tests used:
Type in all cases: cell-based
BT-549 = test system: BT-549
LOX IMVI = test system: LOX IMVI
SK-MEL-5 = test system: SK-MEL-5
HCT-116 = test system: HCT-116
HL-60(TB) = test system: HL-60(TB)
DU-145 = test system: DU-145
MCF7 = test system: MCF7
HCT-15 = test system: HCT-15
A498 = test system: A498
MDA-MB-231/ATCC = test system: MDA-MB-231/ATCC
KM12 = experiment: cells
M14 = test system: M14
HS 578T = test system: HS 578T
NCI-H460 = test system: NCI-H460
RXF 393 = test system: RXF 393
HOP-62 = test system: HOP-62
U251 = test system: U251
CCRF-CEM = test system: CCRF-CEM
OVCAR-5 = test system: OVCAR-5
[1] = Breast cancer, 10^−5 molar, 48 hours, SRB
[2] = Homo sapiens, LOX IMVI, five dose
[3] = Melanoma, 10^−5 molar, 48 hours, SRB
[4] = Homo sapiens, SK-MEL-5, five dose
[5] = Colon cancer, 10^−5 molar, 48 hours, SRB
[6] = Homo sapiens, HCT-116, five dose
[7] = Leukemia, 10^−5 molar, 48 hours, SRB
[8] = Homo sapiens, HCT-15, five dose
[9] = Renal cancer, 10^−5 molar, 48 hours, SRB
[10] = Homo sapiens, NCI-H460, five dose
[11] = Non-small cell lung cancer, 10^−5 molar, 48 hours, SRB
[12] = Homo sapiens, HOP-62, five dose
[13] = Homo sapiens, U-251, U251, five dose

With `CN(C)CCNc1nc2ccccc2c2c(=O)c3cc(Cl)ccc3sc12` [Compound N7, 10-Chloro-6-((2-(dimethylamino)ethyl)amino)-12H-thiochromeno[2,3-c]quinolin-12-one] the TGI (BT-549; BT-549, five dose) was 2.27 µM, the “Growth percent BT-549” value (BT-549; [1]) was 91.29% and the GI50 (BT-549; Homo sapiens, BT-549, five dose) was 8.91 µM. The CC50 (BT-549; Homo sapiens, BT-549, five dose, read-out: LC50 (the source's name)) was 5.33 µM, the GI50 (LOX IMVI; [2]) was 1.68 µM and the LC50 (LOX IMVI; [2]) was 6.24 µM. For the same compound, the TGI (LOX IMVI; LOX IMVI, five dose) was 3.24 µM, the “Growth percent LOX IMVI” value (LOX IMVI; [3]) was −84.12% and the GI50 (SK-MEL-5; [4]) was 1.57 µM. For the same compound, the LC50 (SK-MEL-5; [4]) was 8.21 µM, the “Growth percent SK-MEL-5” value (SK-MEL-5; [3]) was 18.83% and the TGI (SK-MEL-5; SK-MEL-5, five dose) was 3.59 µM. The “Growth percent HCT-116” value (HCT-116; [5]) was −96.59%, the TGI (HCT-116; HCT-116, five dose) was 3.18 µM and the GI50 (HCT-116; [6]) was 1.57 µM. It also gave an LC50 (concentration killing 50% of cells) (HCT-116; [6]) of 6.45 µM, a TGI (HL-60(TB); HL-60(TB), five dose) of 3.49 µM and a GI50 (HL-60(TB); Homo sapiens, HL-60(TB), five dose) of 1.76 µM. The CC50 (HL-60(TB); Homo sapiens, HL-60(TB), five dose, read-out: LC50 (the source's name)) was 6.95 µM, the “Growth percent HL-60(TB)” value (HL-60(TB); [7]) was −47.40% and the TGI (DU-145; DU-145, five dose) was 3.34 µM. The GI50 (DU-145; Homo sapiens, DU-145, five dose) was 1.87 µM, the CC50 (DU-145; Homo sapiens, DU-145, five dose, read-out: LC50 (the source's name)) was 5.99 µM and the “Growth percent DU-145” value (DU-145; Prostate cancer, 10^−5 molar, 48 hours, SRB) was −80.85%. The “Growth percent MCF7 (Table 2: MCF)” value (MCF7; [1]) was −85.41%, the GI50 (MCF7; Homo sapiens, MCF7, five dose) was 1.23 µM and the CC50 (MCF7; Homo sapiens, MCF7, five dose, read-out: LC50 (the source's name)) was 5.71 µM. The TGI (MCF7; MCF7, five dose) was 2.66 µM, the “Growth percent HCT-15” value (HCT-15; [5]) was −30.05% and the TGI (HCT-15; HCT-15, five dose) was 3.14 µM. For the same compound, the GI50 (HCT-15; [8]) was 1.59 µM, the LC50 (HCT-15; [8]) was 6.21 µM and the TGI (A498; A498, five dose) was 9.44 µM. The GI50 (A498; Homo sapiens, A498, five dose) was 2.7 µM, the CC50 (A498; Homo sapiens, A498, five dose, read-out: LC50 (the source's name)) was 3.52 µM and the “Growth percent A498” value (A498; [9]) was 43.17%. The “Growth percent MDA-MB-231/ATCC” value (MDA-MB-231/ATCC; [1]) was −37.28%, the GI50 (MDA-MB-231/ATCC; Homo sapiens, MDA-MB-231/ATCC, five dose) was 1.2 µM and the CC50 (MDA-MB-231/ATCC; Homo sapiens, MDA-MB-231/ATCC, five dose, read-out: LC50 (the source's name)) was 5.28 µM. For the same compound, the TGI (MDA-MB-231/ATCC; MDA-MB-231/ATCC, five dose) was 2.51 µM, the “Growth percent KM12” value (KM12; [5]) was −77.07% and the GI50 (KM12; Homo sapiens, KM12, five dose) was 1.78 µM. The LC50 (KM12; Homo sapiens, KM12, five dose) was 6.03 µM, the TGI (KM12; KM12, five dose) was 3.28 µM and the GI50 (M14; Homo sapiens, M14, five dose) was 1.85 µM. The LC50 (M14; Homo sapiens, M14, five dose) was 6.4 µM, the TGI (M14; M14, five dose) was 3.44 µM and the “Growth percent M14” value (M14; [3]) was −92.77%. The “Growth percent HS 578T” value (HS 578T; [1]) was 34.31%, the TGI (HS 578T; HS 578T, five dose) was 4.02 µM and the GI50 (HS 578T; Homo sapiens, HS 578T, five dose) was 1.74 µM. For the same compound, the CC50 (HS 578T; Homo sapiens, HS 578T, five dose, read-out: LC50 (the source's name)) was 9.27 µM, the GI50 (NCI-H460; [10]) was 1.76 µM and the LC50 (NCI-H460; [10]) was 6.5 µM. For the same compound, the TGI (NCI-H460; NCI-H460, five dose) was 3.38 µM, the “Growth percent NCI-H460” value (NCI-H460; [11]) was −71.14% and the GI50 (RXF 393; Homo sapiens, RXF 393, five dose) was 1.6 µM. The CC50 (RXF 393; Homo sapiens, RXF 393, five dose, read-out: LC50 (the source's name)) was 7.29 µM, the TGI (RXF 393; RXF 393, five dose) was 3.41 µM and the “Growth percent RXF 393” value (RXF 393; [9]) was −15.29%. The TGI (HOP-62; HOP-62, five dose) was 2.92 µM, the GI50 (HOP-62; [12]) was 1.54 µM and the LC50 (lethal concentration 50) (HOP-62; [12]) was 5.56 µM. For the same compound, the “Growth percent HOP-62” value (HOP-62; [11]) was 56.42%, the “Growth percent U251” value (U251; CNS cancer, 10^−5 molar, 48 hours, SRB) was −39.75% and the GI50 (U251; [13]) was 1.48 µM. For the same compound, the LC50 (U251; [13]) was 5.44 µM, the TGI (U251; U251, five dose) was 2.84 µM and the TGI (CCRF-CEM; CCRF-CEM, five dose) was 3.41 µM. For the same compound, the GI50 (CCRF-CEM; Homo sapiens, CCRF-CEM, five dose) was 1.63 µM, the CC50 (CCRF-CEM; Homo sapiens, CCRF-CEM, five dose, read-out: LC50 (the source's name)) was 7.15 µM and the “Growth percent CCRF-CEM” value (CCRF-CEM; [7]) was −53.54%. It also gave a GI50 (OVCAR-5; Homo sapiens, OVCAR-5, five dose) of 1.45 µM, a CC50 (OVCAR-5; Homo sapiens, OVCAR-5, five dose, read-out: LC50 (the source's name)) of 5.83 µM and a TGI (OVCAR-5; OVCAR-5, five dose) of 2.91 µM. The “Growth percent OVCAR-5” value (OVCAR-5; Ovarian cancer, 10^−5 molar, 48 hours, SRB) was 24.27%.
